Holding throughout (assay type): functional, cell-based
One assay relates to A2780. Nature of the assay: Antiproliferative activity against human A2780 cells after 96 hrs by CellTiter-Glo luminescent cell viability assay. The following applies: A2780, 96 h.
The next assay deals with NCI-H460. In words: Antiproliferative activity against human NCI-H460 cells after 96 hrs by CellTiter-Glo luminescent cell viability assay. The following applies: NCI-H460, 96 h. (In ATP-based viability assays light output follows the ATP content of the culture.)
Another assay concerns DU-145. In words: Antiproliferative activity against human DU145 cells after 96 hrs by CellTiter-Glo luminescent cell viability assay. Conditions: DU-145, 96 h.
For the next assay, the system named is HCC 2998. In words: Antiproliferative activity against human HCC2998 cells after 96 hrs by CellTiter-Glo luminescent cell viability assay. Conditions: HCC 2998, 96 h.
For a further assay, the system named is BT-549. Nature of the assay: Antiproliferative activity against human BT549 cells after 96 hrs by CellTiter-Glo luminescent cell viability assay. The following applies: BT-549, 96 h.

SMILES strings stand for the structures.

As to `C=C(CO)[C@H]1Cc2cc3c(cc2O1)OC[C@H]1c2cc4c(cc2O[C@@H]31)OCO4`, the IC50 (as a rule, the concentration needed to halve the response being measured) in the assay with A2780 was more than 54.4 µM.

For the compound `C=C(C)[C@H]1Cc2cc3c(cc2O1)OC[C@H]1c2cc4c(cc2O[C@@H]31)OCO4` [EMOROIDOCARPAN], in the assay on A2780, the IC50 is 26.5 µM.

In turn, `COc1c(-c2ccc3c(c2)OCO3)c(=O)oc2c3c(ccc12)OC(C)(C)C=C3` [PONGAVILLEANINE] had an IC50 in the assay with A2780 of 9.5 µM. Compared with the last compound, the IC50 is about 2.8-fold lower.

`C=C(C)[C@H]1Cc2c(ccc3c2O[C@@H]2COc4cc(OC)c(OC)cc4[C@]2(O)C3=O)O1` [ROTENOLONE]: the IC50 with A2780 came out at 0.95 µM; in the assay with NCI-H460, 2 µM; with DU-145 it was 2.7 µM; in the assay on HCC 2998 it was 2.9 µM; with BT-549, 1.6 µM.

(Values after ChEMBL document CHEMBL1221401, “Antiproliferative compounds from Pongamiopsis pervilleana from the Madagascar Dry Forest” (J Nat Prod, 2010).)
